In ChEMBL document CHEMBL5055672, “Design, Synthesis, Biological Evaluation, and Computational Studies of Novel Fluorinated Candidates as PI3K Inhibitors: Targeting Fluorophilic Binding Sites” (J Med Chem, 2021):

Columns and labels:
[1] = biological target: T1, Phosphatidylinositol 4,5-bisphosphate 3-kinase catalytic subunit delta isoform (Homo sapiens, UniProt O00329); assay: Inhibition of PI3Kdelta (unknown origin) using PIP2 as substrate preincubated for 10 mins followed by substrate addition and measured after 1 hr by ELISA
T1 sequence (O00329 whole entry): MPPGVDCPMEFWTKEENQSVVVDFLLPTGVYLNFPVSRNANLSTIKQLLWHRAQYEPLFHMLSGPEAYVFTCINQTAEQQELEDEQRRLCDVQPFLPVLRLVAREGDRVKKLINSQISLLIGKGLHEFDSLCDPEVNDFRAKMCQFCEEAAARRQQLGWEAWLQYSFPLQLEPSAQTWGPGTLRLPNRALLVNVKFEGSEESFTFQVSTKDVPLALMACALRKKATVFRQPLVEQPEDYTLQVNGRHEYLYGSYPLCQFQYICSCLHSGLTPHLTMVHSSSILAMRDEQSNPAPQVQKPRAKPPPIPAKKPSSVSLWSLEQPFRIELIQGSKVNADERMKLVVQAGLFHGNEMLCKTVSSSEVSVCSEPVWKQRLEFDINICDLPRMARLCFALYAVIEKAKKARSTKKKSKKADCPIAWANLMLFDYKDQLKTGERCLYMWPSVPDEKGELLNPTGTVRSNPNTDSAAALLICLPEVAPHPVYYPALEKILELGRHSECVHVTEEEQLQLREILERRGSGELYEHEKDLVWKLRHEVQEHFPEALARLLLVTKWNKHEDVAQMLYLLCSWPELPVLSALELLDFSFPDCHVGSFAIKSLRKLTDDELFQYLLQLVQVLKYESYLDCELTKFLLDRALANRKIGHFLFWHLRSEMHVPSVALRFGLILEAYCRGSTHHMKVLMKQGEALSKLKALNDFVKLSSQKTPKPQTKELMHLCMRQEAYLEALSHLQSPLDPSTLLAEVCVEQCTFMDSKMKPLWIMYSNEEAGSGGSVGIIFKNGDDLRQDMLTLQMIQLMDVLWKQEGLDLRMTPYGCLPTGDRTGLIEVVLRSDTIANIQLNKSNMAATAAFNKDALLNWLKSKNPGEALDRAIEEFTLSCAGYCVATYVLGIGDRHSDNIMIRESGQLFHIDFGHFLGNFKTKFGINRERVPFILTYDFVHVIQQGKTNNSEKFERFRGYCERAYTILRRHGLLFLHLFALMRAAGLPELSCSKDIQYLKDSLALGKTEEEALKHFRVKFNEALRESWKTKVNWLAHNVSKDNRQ

MCF7 [2] = assay: Cytotoxicity against human MCF7 cells assessed as growth inhibition at 10 uM after 48 hrs by sulforhodamine B assay; format: functional; settings: read-out: GI
CAKI-1 = assay: Cytotoxicity against human CAKI-1 cells assessed as growth inhibition at 10 uM after 48 hrs by sulforhodamine B assay; format: functional; settings: read-out: GI
K562 = assay: Cytotoxicity against human K562 cells assessed as growth inhibition at 10 uM after 48 hrs by sulforhodamine B assay; format: functional; settings: read-out: GI
SR = assay: Cytotoxicity against human SR cells assessed as growth inhibition at 10 uM after 48 hrs by sulforhodamine B assay; format: functional; settings: read-out: GI
HL-60(TB) = assay: Cytotoxicity against human HL-60(TB) cells assessed as growth inhibition at 10 uM after 48 hrs by sulforhodamine B assay; format: functional; settings: read-out: GI
NCI-H522 = assay: Cytotoxicity against human NCI-H522 cells assessed as growth inhibition at 10 uM after 48 hrs by sulforhodamine B assay; format: functional; settings: read-out: GI
MCF-10A = assay: Cytotoxicity against human MCF10A cells assessed as inhibition of cell growth incubated for 48 hrs by MTT assay; format: cell-based
SN12C = assay: Cytotoxicity against human SN12C cells assessed as growth inhibition at 10 uM after 48 hrs by sulforhodamine B assay; format: functional; settings: read-out: GI
HOP-62 = assay: Cytotoxicity against human HOP-62 cells assessed as growth inhibition at 10 uM after 48 hrs by sulforhodamine B assay; format: functional; settings: read-out: GI
T47D = assay: Cytotoxicity against human T47D cells assessed as growth inhibition at 10 uM after 48 hrs by sulforhodamine B assay; format: functional; settings: read-out: GI
UO-31 = assay: Cytotoxicity against human UO-31 cells assessed as growth inhibition at 10 uM after 48 hrs by sulforhodamine B assay; format: functional; settings: read-out: GI
NCI-H226 = assay: Cytotoxicity against human NCI-H226 cells assessed as growth inhibition at 10 uM after 48 hrs by sulforhodamine B assay; format: functional; settings: read-out: GI
OVCAR-4 = assay: Cytotoxicity against human OVCAR-4 cells assessed as growth inhibition at 10 uM after 48 hrs by sulforhodamine B assay; format: functional; settings: read-out: GI
UACC-62 = assay: Cytotoxicity against human UACC-62 cells assessed as growth inhibition at 10 uM after 48 hrs by sulforhodamine B assay; format: functional; settings: read-out: GI
EKVX = assay: Cytotoxicity against human EKVX cells assessed as growth inhibition at 10 uM after 48 hrs by sulforhodamine B assay; format: functional; settings: read-out: GI
MDA-MB-231 = assay: Cytotoxicity against human MDA-MB-231 cells assessed as growth inhibition at 10 uM after 48 hrs by sulforhodamine B assay; format: functional; settings: read-out: GI
[3] = Selectivity index, ratio of IC50 for human MCF-10A cells to IC50 for human MCF7 cells; format: toxicity; settings: MCF-10A cells versus MCF7 cells, read-out: Ratio IC50
MCF7 [4] = assay: Antiproliferative activity against human MCF7 cells assessed as inhibition of cell growth incubated for 48 hrs by MTT assay; format: functional, cell-based; settings: MCF7, 48 h
SF-539 = assay: Cytotoxicity against human SF-539 cells assessed as growth inhibition at 10 uM after 48 hrs by sulforhodamine B assay; format: functional; settings: read-out: GI
SNB-19 = assay: Cytotoxicity against human SNB-19 cells assessed as growth inhibition at 10 uM after 48 hrs by sulforhodamine B assay; format: functional; settings: read-out: GI
SF-268 = assay: Cytotoxicity against human SF-268 cells assessed as growth inhibition at 10 uM after 48 hrs by sulforhodamine B assay; format: functional; settings: read-out: GI
CCRF-CEM = assay: Cytotoxicity against human CCRF-CEM cells assessed as growth inhibition at 10 uM after 48 hrs by sulforhodamine B assay; format: functional; settings: read-out: GI
MOLT-4 = assay: Cytotoxicity against human MOLT-4 cells assessed as growth inhibition at 10 uM after 48 hrs by sulforhodamine B assay; format: functional; settings: read-out: GI
[5] = Cytotoxicity against human Hs 578T cells assessed as growth inhibition at 10 uM after 48 hrs by sulforhodamine B assay; format: functional; settings: read-out: GI
U-251 = assay: Cytotoxicity against human U-251 cells assessed as growth inhibition at 10 uM after 48 hrs by sulforhodamine B assay; format: functional; settings: read-out: GI

For `O=c1cc(N2CCOCC2)oc2c(-c3ccccc3)cccc12` [LY-294002], the IC50 [1] was 14.9 µM.

Work on `FC(F)(F)COc1ccc(/C=N/N=c2\scc(-c3ccccc3)n2-c2ccccc2)cc1` yielded an inhibition of growth at 10 µM (MCF7 [2]) of 53.4%.

For `FC(F)(F)c1ccc(-c2nnc(Nc3ccccc3)s2)cc1`, the inhibition of growth at 10 µM (CAKI-1) was 11.7%, the inhibition of growth at 10 µM (K562) was 13.7% and the inhibition of growth at 10 µM (SR) was 24.9%. For the same molecule, the inhibition of growth at 10 µM (HL-60(TB)) was 26.2%, the inhibition of growth at 10 µM (MCF7 [2]) was 11.4% and the inhibition of growth at 10 µM (NCI-H522) was 11%.

Work on `COc1cccc2c1C(=O)c1c(O)c3c(c(O)c1C2=O)C[C@@](O)(C(=O)CO)C[C@@H]3O[C@H]1C[C@H](N)[C@H](O)[C@H](C)O1` [DOXORUBICIN] yielded an IC50 (MCF-10A) of 19 µM.

Work on `O=S(=O)(Oc1ccc(-c2nnc(Nc3ccccc3)s2)cc1)C(F)(F)C(F)(F)C(F)(F)C(F)(F)F` yielded an inhibition of growth at 10 µM (CAKI-1) of 22.1%, an inhibition of growth at 10 µM (K562) of 12.6% and an inhibition of growth at 10 µM (SR) of 10.1%. For the same molecule, the inhibition of growth at 10 µM (SN12C) was 14.5%, the inhibition of growth at 10 µM (HOP-62) was 12.4% and the inhibition of growth at 10 µM (MCF7 [2]) was 12.8%. The inhibition of growth at 10 µM (T47D) was 14.1%, the inhibition of growth at 10 µM (UO-31) was 19.9% and the inhibition of growth at 10 µM (NCI-H226) was 15.8%. It also gave an inhibition of growth at 10 µM (OVCAR-4) of 17.2% and an inhibition of growth at 10 µM (UACC-62) of 10.7%.

Work on `FC(F)(F)c1ccc(/C=N/NC(=S)Nc2ccccc2)cc1` yielded an inhibition of growth at 10 µM (EKVX) of 10.3%.

Molecule `O=S(=O)(Oc1ccc(-c2nnc(Nc3ccccc3)s2)cc1)C(F)(F)C(F)(F)C(F)(F)C(F)(F)C(F)(F)C(F)(F)F` has an inhibition of growth at 10 µM (SR) of 80.5%, an inhibition of growth at 10 µM (HL-60(TB)) of 29.4% and an inhibition of growth at 10 µM (MDA-MB-231) of 13.1%.

`O=S(=O)(Oc1ccc(/C=N/N=c2\scc(-c3ccccc3)n2-c2ccccc2)cc1)C(F)(F)C(F)(F)C(F)(F)C(F)(F)C(F)(F)C(F)(F)C(F)(F)C(F)(F)F` gave an inhibition of growth at 10 µM (MCF7 [2]) of 46.1%.

`O=S(=O)(Oc1ccc(/C=N/NC(=S)Nc2ccccc2)cc1)C(F)(F)C(F)(F)C(F)(F)C(F)(F)C(F)(F)C(F)(F)C(F)(F)C(F)(F)F` showed an inhibition of growth at 10 µM (UO-31) of 13.3% and an inhibition of growth at 10 µM (NCI-H522) of 10.1%.

`COc1cc([C@@H]2c3cc4c(cc3[C@@H](O[C@@H]3O[C@@H]5CO[C@@H](C)O[C@H]5[C@H](O)[C@H]3O)[C@H]3COC(=O)[C@H]23)OCO4)cc(OC)c1O` [ETOPOSIDE] showed an IC50 (MCF-10A) of 84.7 µM, a selectivity ratio [3] of 3.86 and an IC50 (MCF7 [4]) of 12.6 µM.

`O=S(=O)(Oc1ccc(/C=N/N=c2\scc(-c3ccccc3)n2-c2ccccc2)cc1)C(F)(F)C(F)(F)C(F)(F)C(F)(F)C(F)(F)C(F)(F)F` gave an inhibition of growth at 10 µM (MCF7 [2]) of 43.5%.

`COC(=O)/C=C1\S/C(=N\N=C\c2ccc(OS(=O)(=O)C(F)(F)C(F)(F)C(F)(F)C(F)(F)C(F)(F)C(F)(F)F)cc2)N(c2ccccc2)C1=O` gave an inhibition of growth at 10 µM (CAKI-1) of 28%, an inhibition of growth at 10 µM (K562) of 39% and an inhibition of growth at 10 µM (SR) of 32.7%. For the same molecule, the inhibition of growth at 10 µM (SF-539) was 13.7%, the inhibition of growth at 10 µM (SNB-19) was 26.4% and the inhibition of growth at 10 µM (HOP-62) was 13.1%. It also gave an inhibition of growth at 10 µM (MDA-MB-231) of 12.8%, an inhibition of growth at 10 µM (SF-268) of 10.4% and an inhibition of growth at 10 µM (CCRF-CEM) of 22.7%. For the same molecule, the inhibition of growth at 10 µM (MOLT-4) was 13.4%, the inhibition of growth at 10 µM [5] was 23.7% and the inhibition of growth at 10 µM (U-251) was 10.4%. For the same molecule, the inhibition of growth at 10 µM (UACC-62) was 17.6%.

`COC(=O)/C=C1\S/C(=N\N=C\c2ccc(OS(=O)(=O)C(F)(F)C(F)(F)C(F)(F)C(F)(F)F)cc2)N(c2ccccc2)C1=O` gave an inhibition of growth at 10 µM (MCF7 [2]) of 10% and an inhibition of growth at 10 µM (UACC-62) of 21.6%.

In the case of `FC(F)(F)c1ccc(/C=N/N=c2\scc(-c3ccccc3)n2-c2ccccc2)cc1`, the inhibition of growth at 10 µM (MCF7 [2]) is reported as 41.1%.
